Laboratory results reported in patent publication US7998460B2, “Prevention of deficits in neurogenesis with anti-inflammatory agents” (The Board of Trustees of the Leland Stanford Junior …, priority 2003, dated 2011).
Entries after “also recorded” stand apart in the source; their conditions may differ.

Assays:
hippocampal neurogenesis [1] = assay: Oral NSAID course and LPS challenge, hippocampal neurogenesis at day 28 in mice; assay type: in vivo, mouse; conditions: oral NSAID course, LPS 5 mg/kg
Source text: NSAID treatment. […]

[2] = Mortality with indomethacin in mice; assay type: in vivo, mouse; conditions: higher dose (5 mg/kg BID)
Source text: The propensity of NSAIDs to induce ulceration and bleeding often outweigh the anti-inflammatory benefits. […] NSAIDs that more selectively target Cox-2, such as roficoxib and celecoxib, are well tolerated and have been widely used as alternatives to broad spectrum NSAIDs for controlling inflammation. In addition, the selective agonism of PPAR-γ is an effective anti-inflammatory strategy, e.g., through administration of thiazolidinediones such as rosiglitazone or pioglitizone. […] Mice were started on a 16 day preventative course of oral NSAID and then challenged with a single IP injection of LPS (5 mg/kg) and then BrdU (50 mg/kg) over 6 days beginning 2 h after LPS. The mice were either perfused 28 days after LPS injection, or trained and tested in the Morris water maze.
NSAID treatment. One half of the saline- and LPS-treated mice were fed non-steroidal anti-inflammatory drug (NSAID), in low fat strawberry milk, twice per day for two weeks following LPS injection (Days 0-13). The mice were initially introduced to low fat strawberry milk (Berkeley Farms, Calif.; 200 μl per animal) in their home cages, four days before LPS was injected (Days […]) and were then placed in a PVC tube (10-cm diameter×18-cm height), twice per day (12 h apart) beginning two days before LPS was injected (Days −2 and −1) until they consumed a 100 μl volume of low fat strawberry milk. […]

hippocampal neurogenesis [3] = assay: LPS-induced transient illness, microglia and hippocampal neurogenesis in mice; assay type: in vivo, mouse
Description: To investigate whether an LPS challenge produces more chronic effects on neurogenesis, adult female C57BI/6 mice were injected intraperitoneally (i.p.) with 0, 5, 7.5 and 10 mg/kg of LPS and subcutaneously with sterile saline to prevent dehydration. Mice were then injected once daily over the next 6 days with the cell synthesis marker bromodeoxyuridine (BrdU; 50 mg/kg) to label dividing progenitor cells. Histology was performed on sections from mice that were perfused on Day 7 or Day 28. The number of BrdU-labeled (new) or IBA-1-labeled (monocyte/microglial) cells was estimated through hippocampal sets stereologically using enzyme substrate immunohistochemistry and light microscopy and BrdU-labeled cell phenotypes and IBA-1-labeled activation was determined using immunofluorescence and confocal microscopy.
Subjects. All mice used as subjects in this study were treated in accordance with the policies set forth by the Stanford Animal Care and Use Committee and NIH regarding the ethical use of animals for experimentation. CB57BI/6 mice (7 wks old upon arrival from -Taconic) were housed in groups of 4-5 in autoclaved shoebox cages under standard conditions and were given free access to autoclaved Prolab Mouse 3000 chow (PMI Nutrition International, St. Louis, Mo.) and autoclaved tap water. One week after arrival, vehicle- and NSAID-treated mice were given an intraperitoneal (i.p.) injection of sterile saline or lipopolysaccharide (LPS; 5 mg/kg at a concentration of 1 mg/ml isotonic saline; Sigma Aldrich, St. Louis, Mo.) to induce transient illness (Day 0) and daily subcutaneous (s.c.) isotonic saline (0.5 ml) injections (Days 0-3) to prevent illness-induced dehydration. The cell synthesis marker bromodeoxyuridine (BrdU; Sigma Aldrich, St. Louis, Mo.) was injected i.p. (50 mg/kg at a concentration of 10 mg/ml in freshly prepared isotonic saline) once per day for 6 days to label dividing cells, beginning Day 0 (2 h after LPS). The mice were anesthetized with ketamine/xylazine and killed at Days 7 or 28 (to assess hippocampal neurogenesis during illness and just before behavioral testing, respectively) or Day 80 (to measure hippocampal neurogenesis following behavioural testing) by perfusion with 4% paraformaldehyde. Brains were post-fixed overnight in perfusate, microtome sectioned at 40 μm through the hippocampus and stored in tissue cryoprotectant solution at −20° C. until processed immunohistochemically.
Histology and Immunohistochemistry. Free floating sections were immunostained as described previously using the following primary antibodies and working concentrations: rat anti-bromodeoxyuridine (1:500; Accurate, Westbury, N.J.) goat anti-doublecortin (1:500; Santa Cruz, Calif.), rabbit anti-[…] (1:2000; WAKO, Los Angeles, Calif.), rabbit anti-FA-11 (CD68; 1:200; Serotec, Raleigh, N.C.), guinea pig anti-GFAP (1:750; Harlan, Indianapolis, Ind.), rabbit anti-NG2 (1:2000; a gift from W. Stallcup), mouse anti-NeuN (1:500; Chemicon; Temeculah, Calif.). Tissue was incubated in all primary antibodies ovemight (and in anti-BrdU for 48 h) at 4° C. Phenotyping sets were incubated in minimally cross-reactive secondary IGg conjugated fluorophores (1:500; Jackson Immunoresearch, West Grove, Pa.) overnight at 4° C. and coverslipped under PVA-DABCO.
Cell Counting and Unbiased Stereology. BrdU-labeled cells were phenotyped and total BrdU-labeled and […] cell numbers stereologically estimated if they were located in the hippocampal granule cell layer proper and subgranular zone (the neurogenic zone that includes a 50 μm border between the hilus and granule cell layer). BrdU-labeled cells were phenotyped on immunofluroescent stained sections that were anatomically matched using a Zeiss 510 Meta confocal microscope using a multi-channel configuration with a 40× objective and electronic zoom of 2.3. Appropriate gain and black level was set using control sections stained with secondary antibodies alone. […]

[4] = Sickness behavior after LPS in rats; assay type: in vivo, rat; conditions: LPS 1 mg/Kg i.p. one time
Description: LPS exposure. Bacterial lipopolysaccharide (LPS, Sigma, St Louis, Mo.) was administered in sterile saline by intraperitoneal injection at a dose of 1 mg/Kg one time. This caused mild sickness behavior (decreased grooming, decreased locomotor activity, increased piloerection) for approximately 2 days, resolving by the 3rd day. The dose of LPS chosen causes mild sickness behavior in rats that resolves within 1-2 days; the dose of LPS used to induce endotoxic shock is 10-fold higher than that used in the present study.

[5] = dentate gyri, 4 weeks after LPS

Row | Compound | effect on LPS-induced deficit in fraction of newborn cells adopting a neuronal fate (DCX and/or NeuN) by Day 28 (hippocampal neurogenesis [1]) | effect on LPS-induced reduction of transition state and mature neurons (hippocampal neurogenesis [1]; Day 28) | mortality [2] [%] | reduction in the net number of new neurons (hippocampal neurogenesis [3]; 4 weeks after LPS challenge) | reduction of BrdU positive cells colabeled with NeuN (hippocampal neurogenesis [3]; 4 weeks after LPS challenge) | reduction of BrdU-positive cells colabeled with DCX/NeuN (hippocampal neurogenesis [3]; 4 weeks after LPS challenge) | total number of BrdU positive cells vs vehicle (hippocampal neurogenesis [3]; 6 and 28 d after injection) | activation (FA-11/CD68) intensity on IBA-1 positive cells vs vehicle (hippocampal neurogenesis [3]; [5]) [fold] | total IBA-1 positive cell number vs vehicle (hippocampal neurogenesis [3]; [5]) | reduction of BrdU positive cells colabeled with DCX/NeuN (hippocampal neurogenesis [3]; week following LPS challenge, independent of LPS dose) | duration of mild sickness behavior [4]
1 | COc1ccc2c(c1)c(CC(=O)O)c(C)n2C(=O)c1ccc(Cl)cc1 [indomethacin] | attenuated, but did not completely reverse this deficit; also recorded: attenuated this deficit | partially reversed the effects of LPS | 100 |  |  |  |  |  |  |  | 
2 | lipopolysaccharide [LPS] |  |  |  | 45-55% | ≈ 57% | ≈ 44% | similar | 1.25 | similar | ≈ 41% | approximately 2 days
